Like-named read-outs stand apart in the source and are kept apart here.
Assays:
KB-3-1 = experiment: Cell survival assay (SRB), KB-3-1; type: cell-based, human
In short: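 Growth inhibition (IC50) is derived from SRB-measured protein content after a 3-day, duplicate exposure to serially diluted compound.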

[1] = test system: Human Melanoma Carcinoma Lox; details: staged LOX xenograft; at MTD ('<': MTD not achieved); days 11-15
Procedure: 2.4. Growth of Tumors in Nude Mice. […] In these experiments, xenografts are implanted subcutaneously into the flanks of nude mice. […] Relative tumor mass compared to controls are assessed during the 21-day post-staging period.
Groups of 5 female nu/nu mice are injected with 1.5×10^6 KB-3-1 (A) or Lox cells (B). […] Relative tumor growth is determined during the experiment and % T/C calculated. Statistical analyses are Student's t-test of treated time points vs. vehicle (*, P<0.05; **, P<0.01)

KB-8-5 (MDR1+) = experiment: Cell survival assay (SRB), KB-8-5 (MDR1+); details: for IC50: Homo sapiens, MDR1, read-out: In vitro IC50 (nM) KB85
KB-V1 (MDR1++) = experiment: Cell survival assay (SRB), KB-V1 (MDR1++); details: for IC50: Homo sapiens, read-out: In vitro IC50 (nM) KBV1
KB-PTX-15+099 = experiment: Cell survival assay, KB-PTX-15+099 (paclitaxel-resistant, non-MDR); type: cell-based, human
KB-HTI-4.0 = experiment: Cell survival assay, KB-3-1 line made resistant to Example 129 (KB-HTI-4.0); type: cell-based, human
Excerpt: (§1) Cells lines with previously known mechanisms of resistance. […] Res. 8: 207-218,1996); KB-3-1 (parental derived from an epidermoid carcinoma), KB-8.5, KB-V1 (Akiyama S-I, Fojo A, Hanover J A, Pastan I, Gottesman M M. Isolation and genetic characterization of human KB cell lines resistant to multiple drugs. Somatic Cell Mol. Gen., 11: 117-126,1985; Shen D-W, Cardarelli C, Hwang J, Cornwell M, Richert N, Ishii S, Pastan I, Gottesman MM. […] J. Biol. Chem., 261: 7762-7770, 1986); and HL-60 (parental derived from human leukemia) and HL60/AR (McGrath T., Center M. S. Adriamycin resistance in HL60 cells in the absence of detectable P-glycoprotein. Biochem. Res. Commun., 145:1171-1176,1987); A549 and A549.EpoB40 (He L., Yang C.-P.H., Horwitz S. B. Mutations in p-tubulin map to domains involved in regulation of microtubule stability in epothilone-resistant cell lines. Molecular Cancer Therapeutics. 1: 3-10, 2001). HCT-15 human colon carcinoma and DLD-1 human colon carcinoma are obtained from American Tissue Culture Collection. The MX-1W carcinoma is a Wyeth variant orginally obtained as MX-1 breast carcinoma from the National Cancer Institute. Cell lines selected for resistance to Representative Example 129. KB-3-1 cells are selected for resistance to Example 129 by chronically exposing cells to increasing concentrations of Example 129.
(§2) 2.2. Cell Survival Assay: Standard Pharmacological Test Procedure. The concentration of candidate inhibitor required to inhibit 50% of cell growth (IC50) is done according to previously reported methods. […] Compounds are serially diluted into media as 2× stocks and 100 μl added to cells in duplicate. Compounds are incubated with cells for 3 days. At the end of the incubation period the sulforhodamine B (SRB) assay, which measures protein content as an assessment of cell survival, is performed as described previously (Skehan P, Storeng R, Scudiero D, Monks A, McMahon J, Vistica D, Warren J T, Bokesch H, Kenney S, Boyd MR. New calorimetric cytotoxicity assay for anticancer-drug screening. J Natl Cancer Inst 1990 Jul 4;82(13):1107-12) with some modification as follows. For KB-3-1 cells with 20% FCS, media is gently decanted and replaced with 200 μl of serum-free media mixed with cold 50% TCA for a final concentration of 10% TCA. The plates are incubated for 1 hr at 4° C., followed by washing 5 times in cold distilled water, then air dried overnight. The fixed cells are stained for 10 min with 80 μl of 0.04% SRB solution prepared in 1% glacial acetic acid. Stain is discarded and plates washed 5 times in 1% glacial acetic acid, then air-dried until completely dry. Stained cell product is dissolved in 150 μl of 10 mM Trizma Base and placed on a shaker for 20 minutes until fully dissolved. Absorbance is read on a Victor V multi-label plate reader (Perkin Elmer, Gaithersburg, Md.).
Cells are selected for resistance to Example 129 to understand the frequency and mechanistic basis of resistance.

tumor cell lines = experiment: cells; type: cell-based; details: Five micromolar
Excerpt: as §1, §2

[2] = Homo sapiens, KB 3-1, 72 h, amount of drug needed to kill 50% of cells after three days continuous exposure, Table 11, read-out: IC50 in parental cell line KB-3-1
[3] = Homo sapiens, KB 3-1, KB-3-1 cells (paclitaxel-sensitive parent), read-out: In vitro IC50 (nM) KB-3-1

Row | Structure (SMILES) | IC50 (KB-3-1; [2]) [nM] | IC50 (KB-3-1; [3]) [nM] | Activity in nude mice animal model (% T/C @ MTD on days 11-15) LOX [1] [%] | Ratio KB85/KB (KB-8-5 (MDR1+)) | IC50 (KB-8-5 (MDR1+)) [nM] | Ratio KBV1/KB (KB-V1 (MDR1++)) | IC50 (KB-V1 (MDR1++)) [nM] | IC50 (KB-3-1; KB-3-1, Table 6, read-out: KB-3-1 IC50) [nM] | IC50 (KB-3-1; KB-3-1 parental, Table 8, read-out: KB-3-1 IC50) [nM] | Average Relative Resistance (RR) (KB-PTX-15+099; IC50 KB-PTX-15+099 / IC50 KB-3-1, less than 1 = increased sensitivity) | IC50 (KB-PTX-15+099; KB-PTX-15+099, Table 6, read-out: KB-PTX-15+099 IC50) [nM] | increased sensitivity of KB-PTX-15+099 cells (KB-PTX-15+099; vs KB-3-1) [fold] | IC50 (KB-HTI-4.0; KB-3-1 line made resistant to Example 129, Table 8, read-out: KB-HTI-4.0 IC50) [nM] | (RR) relative resistance vs. parental cells (KB-HTI-4.0; KB-HTI-4.0 vs KB-3-1) | RR, relative resistance (KB-8-5 (MDR1+); IC50 KB-8-5 / IC50 KB-3-1, Table 3) | RR, relative resistance (KB-V1 (MDR1++); IC50 KB-V1 / IC50 KB-3-1, Table 3) | effect on cell growth when given alone (tumor cell lines; KB-3-1, KB-85, KB-V1 (Table 4)) | effect on cell growth when given alone (tumor cell lines; MX-1W, DLD-1, HCT-15 (Table 2))
1 | CN[C@H](C(=O)N[C@H](C(=O)N(C)[C@H](/C=C(\C)C(=O)O)C(C)C)C(C)(C)C)C(C)(C)c1cccc(Cl)c1 [Example 2, 3-Chloro-N,β,β-trimethyl-L-phenylalanyl-N^1-[(1S,2E)-3-carboxy-1-isopropyl-2-butenyl]-N^1,3-dimethyl-L-valinamide] | 1.1 | 1.14 | 9 | 2.8 | 3.2 | 80.0 | 91 |  |  |  |  |  |  |  |  |  |  | 
2 | CN[C@H](C(=O)N[C@H](C(=O)N(C)[C@H](/C=C(\C)C(=O)O)C(C)C)C(C)(C)C)C(C)(C)c1cccc(C(F)(F)F)c1 [Example 62, N,β,β-Trimethyl-3-(trifluoromethyl)-L-phenylalanyl-N^1-[(1S,2E)-3-carboxy-1-isopropyl-2-butenyl]-N^1,3-dimethyl-L-valinamide] | 0.7 | 0.647 | 2 | 2.6 | 1.7 | 66.0 | 42.7 |  |  |  |  |  |  |  |  |  |  | 
3 | CC/C(=C\[C@H](C(C)C)N(C)C(=O)[C@@H](NC(=O)[C@@H](NC)C(C)(C)c1ccccc1)C(C)(C)C)C(=O)O [Example 78, N,β,β-Trimethyl-L-phenylalanyl-N^1-[(1S,2E)-3-carboxy-1-isopropyl-2-pentenyl]-N 1,3-dimethyl-L-valinamide] | 5.4 | 5.4 | 17 | 2.5 | 13.7 | 94.9 | 512 |  |  |  |  |  |  |  |  |  |  | 
4 | CN[C@@H](C(=O)N[C@H](C(=O)N(C)[C@H](/C=C(\C)C(=O)O)C(C)C)C(C)(C)C)C(C)(C)c1cc(F)cc(F)c1 [Example 65, 3,5-Difluoro-N,β,β-trimethyl-D-phenylalanyl-N^1-[(1S,2E)-3-carboxy-1-isopropylbut-2-enyl]-N^1,3-dimethyl-L-valinamide] | 2 | 2 | 8 | 1.5 | 2.9 | 38.8 | 77.6 |  |  |  |  |  |  |  |  |  |  | 
5 | CN[C@H](C(=O)N[C@H](C(=O)N(C)[C@H](/C=C(\C)C(=O)O)C(C)C)C(C)C)C(C)(C)c1ccccc1.O=C(O)C(F)(F)F [Example 105, N,β,β-trimethyl-L-phenylalanyl-N^1-[(1S,2E)-3-carboxy-1-isopropyl-2-butenyl]-N^1-methyl-L-valinamide Trifluoroacetic Acid] | 5.2 | 5.25 | 8 | 2.1 | 11.1 | 54.9 | 288 |  |  |  |  |  |  |  |  |  |  | 
6 | CN[C@H](C(=O)N[C@H](C(=O)N(C)[C@H](C[C@@H](C)C(=O)O)C(C)C)C(C)(C)C)C(C)(C)c1ccccc1 [Example 124, N,β,β-trimethyl-L-phenylalanyl-N^1-[(1R,3R)-3-carboxy-1-isopropylbutyl]-N^1,3-dimethyl-L-valinamide] | 8.6 | 8.6 | 62 | 2.2 | 18.9 | 153.0 | 1320 |  |  |  |  |  |  |  |  |  |  | 
7 | CCOC(=O)/C(C)=C/[C@H](C(C)C)N(C)C(=O)[C@@H](NC(=O)[C@@H](NC)C(C)(C)c1ccccc1)C(C)(C)C [Example 133, Ethyl (E,4S)4-[((2S)-3,3-dimethyl-2-{[(2S)-3-methyl-2-(methylamino)-3-phenylbutanoyl]amino}butanoyl)(methyl)amino]-2,5-dimethyl-2-hexenoate] | 34 | 34 | 1 | 14.5 | 499 | 54.5 | 1870 |  |  |  |  |  |  |  |  |  |  | 
8 | CN[C@H](C(=O)N[C@H](C(=O)N(C)[C@H](/C=C(\C)C(=O)O)C(C)C)C(C)(C)C)C(C)(C)c1cccs1 [Example 20, N-Methyl-3-(2-thienyl)-L-valyl-N^1-[(1S,2E)-3-carboxy-1-isopropyl-2-butenyl]-N^1,3-dimethyl-L-valinamide] | 2 | 2 | 3 | 2.0 | 3.9 | 80.9 | 162 |  |  |  |  |  |  |  |  |  |  | 
9 | CN[C@H](C(=O)N[C@H](C(=O)N(C)[C@H](/C=C(\C)C(=O)O)C(C)C)C(C)(C)C)C(C)(C)c1ccc(C)c(C)c1 [Example 14, N,β,β,3,4-Pentamethyl-L-phenylalanyl-N^1-[(1S,2E)-3-carboxy-1-isopropyl-2-butenyl]-N^1,3-dimethyl-L-valinamide] | 0.4 | 0.408 | 2 | 2.8 | 1.13 | 95.6 | 39 |  |  |  |  |  |  |  |  |  |  | 
10 | CC[C@H](C)[C@@H]([C@@H](CC(=O)N1CCC[C@H]1[C@H](OC)[C@@H](C)C(=O)N[C@@H](Cc1ccccc1)c1nccs1)OC)N(C)C(=O)[C@@H](NC(=O)[C@H](C(C)C)N(C)C)C(C)C [dolastatin-10] |  |  |  |  |  |  |  | 0.041 ± 0.01 | 0.03 ± 0.02 | (0.30) | 0.012 ± 0.004 | 3.4 | 0.83 ± 0.33 | (28) | 7.1 | 573 |  | 
11 | COc1ccc(C(C#N)(CCCCCN2CCc3cc(OC)c(OC)cc3C2)Sc2ccc(C)cc2)cc1OC (centres unmarked) |  |  |  |  |  |  |  |  |  |  |  |  |  |  |  |  | # has no inhibitory effect on cell growth when given alone. Data are the mean of two experiments. | # Five micromolar 7-(6,7-dimethoxy-3,4-dihydro-1H-isoquinolin-2-yl)-2(3,4-dimethoxy-phenyl)-2-p-tolysulfanyl-heptanenitrile has no inhibitory effect on cell growth when given alone.
